ChEMBL document CHEMBL5241130, “Integrating a phenotypic screening with a structural simplification strategy to identify 4-phenoxy-quinoline derivatives to potently disrupt the mitotic localization of Aurora kinase B” (Bioorg Med Chem, 2023)
Calls of active or inactive are those of the source. No cut-off for these calls is given here.

How the values were obtained:
[1] = target: Receptor-type tyrosine-protein kinase FLT3 (Homo sapiens, UniProt P36888); assay: Inhibition of FLT3 (unknown origin); assay type: toxicity
[2] = target: Aurora kinase B (Homo sapiens) (UniProt Q96GD4); assay: Inhibition of AURKB in human RPE-MYC H2B-GFP cells assessed as inhibition of histone H3 phosphorylation at Ser10 residue at 8XMEC measured after 6 hrs by immunofluorescence staining analysis; assay type: cell-based
[3] = Half life in Wistar rat at 2 mg/kg, iv measured for 24 hrs by LC-MS/MS analysis; assay type: ADME, organism-based; settings: in vivo
SW480 = assay: Cytotoxicity against human SW480 cells assessed as cell growth inhibition incubated for 3 days by MTT assay; assay type: functional, cell-based; settings: time 3.0 day
[4] = Ratio of drug uptake in tumor of BALB/c nude mouse xenografted with human HCT-116 cells at 50 mg/kg, po bid for 7 days and measured at 6 hrs post-last drug administration to MEC for disruption of mitotic localization of AURKB in human RPE-MYC H2B-GFP cells assessed as induction of mitotic arrest measured after 24 hrs
[5] = target: Aurora kinase B (Homo sapiens) (UniProt Q96GD4); assay: Disruption of mitotic localization of AURKB at the spindle mid-zone and equatorial cortex in human RPE-MYC cells expressing BCL2 at 40 nM measured after 6 hrs by immunofluorescence staining analysis; assay type: cell-based
[6] = target: Aurora kinase B (Homo sapiens) (UniProt Q96GD4); assay: Inhibition of AURKB (unknown origin) by bio-chip based analysis
[7] = Volume of distribution at steady state in Wistar rat at 2 mg/kg, iv measured after 24 hrs by LC-MS/MS analysis; assay type: ADME, organism-based; settings: in vivo, read-out: Vdss
[8] = Oral bioavailability in Wistar rat at 20 mg/kg measured for 24 hrs by LC-MS/MS analysis; assay type: ADME, organism-based; settings: in vivo
[9] = target: Aurora kinase B (Homo sapiens) (UniProt Q96GD4); assay: Disruption of mitotic localization of AURKB in human RPE-MYC H2B-GFP cells assessed as induction of polyploidy by fluorescence high content cell imaging analysis relative to control; assay type: cell-based
Mus musculus = assay: Induction of polyploidy in BALB/c nude mouse xenografted with human HCT-116 cells assessed as increase in polyploid cells in tumor at 50 mg/kg, po bid for 7 days by immunohistochemical staining based analysis relative to control; assay type: functional; settings: time 7 day
HCT-116 = assay: Cytotoxicity against human HCT-116 cells assessed as cell growth inhibition incubated for 3 days by MTT assay; assay type: functional, cell-based; settings: time 3.0 day
[10] = target: T1, Aurora kinase A (Homo sapiens) (UniProt O14965); assay: Inhibition of AURKA in human RPE-MYC H2B-GFP cells assessed as inhibition of autophosphorylation of AURKA at Thr288 residue at 8XMEC measured after 6 hrs by immunofluorescence staining analysis; assay type: cell-based
T1 sequence (whole entry): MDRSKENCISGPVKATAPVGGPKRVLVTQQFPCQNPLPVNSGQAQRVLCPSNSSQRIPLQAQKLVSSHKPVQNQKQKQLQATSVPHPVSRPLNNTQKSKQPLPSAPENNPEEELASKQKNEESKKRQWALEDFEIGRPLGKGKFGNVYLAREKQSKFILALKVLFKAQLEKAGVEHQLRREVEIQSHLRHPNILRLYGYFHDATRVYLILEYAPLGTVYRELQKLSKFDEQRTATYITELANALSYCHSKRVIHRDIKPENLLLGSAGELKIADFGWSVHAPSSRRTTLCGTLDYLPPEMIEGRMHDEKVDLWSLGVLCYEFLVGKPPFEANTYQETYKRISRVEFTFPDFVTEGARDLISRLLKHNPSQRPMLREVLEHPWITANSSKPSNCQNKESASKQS

[11] = target: Mitotic checkpoint serine/threonine-protein kinase BUB1 (Homo sapiens) (UniProt O43683); assay: Inhibition of Bub1 (unknown origin) by bio-chip based analysis
HeLa = assay: Cytotoxicity against human HeLa cells assessed as cell growth inhibition incubated for 3 days by MTT assay; assay type: functional, cell-based; settings: time 3.0 day
[12] = target: Rho-associated protein kinase 1 (Homo sapiens) (UniProt Q13464); assay: Inhibition of ROCK1 (unknown origin) by bio-chip based analysis
[13] = Ratio of drug uptake in tumor of BALB/c nude mouse xenografted with human HCT-116 cells at 50 mg/kg, po bid for 7 days and measured at 6 hrs post-last drug administration to MEC for Disruption of mitotic localization of AURKB in human RPE-MYC H2B-GFP cells assessed as induction of polyploidy
[14] = Clearance in Wistar rat at 2 mg/kg, iv measured after 24 hrs by LC-MS/MS analysis; assay type: ADME, organism-based; settings: in vivo
[15] = Plasma concentration in BALB/c nude mouse xenografted with human HCT-116 cells administered as single dose and measured after 6 hrs by LC-MS/MS analysis; assay type: ADME
[16] = target: Serine/threonine-protein kinase PLK2 (Homo sapiens) (UniProt Q9NYY3); assay: Inhibition of PLK2 (unknown origin) by bio-chip based analysis
NCI-N87 = assay: Cytotoxicity against human NCI-N87 cells assessed as cell growth inhibition incubated for 3 days by MTT assay; assay type: functional, cell-based; settings: time 3.0 day
[17] = test system: Tyrosine-protein kinase ABL1 (Homo sapiens), P00519 [H396P]; assay: Inhibition of human recombinant ABL1 H396P mutant at 2 uM by KINOMEscan assay
[18] = Half life in Wistar rat at 20 mg/kg, po measured for 24 hrs by LC-MS/MS analysis; assay type: ADME, organism-based; settings: in vivo
[19] = MRT (0 to infinity) in Wistar rat at 20 mg/kg, po by LC-MS/MS analysis; assay type: ADME, organism-based; settings: in vivo
[20] = Drug degradation in PBS buffer at pH 7.4 measured after 72 hrs by LC-MS analysis; assay type: physicochemical; settings: read-out: Drug degradation
[21] = target: Aurora kinase B (Homo sapiens) (UniProt Q96GD4); assay: Inhibition of AURKB in human RPE-MYC cells expressing BCL2 assessed as inhibition of histone H3 phosphorylation at Ser10 residue at 40 nM measured after 6 hrs by immunofluorescence staining analysis; assay type: cell-based
[22] = target: Aurora kinase B (Homo sapiens) (UniProt Q96GD4); assay: Disruption of mitotic localization of AURKB in human RPE-MYC cells expressing BCL2 assessed as mitotic index at 40 nM measured after 6 hrs by fluorescence high content cell imaging analysis (reference value: 5.3%); assay type: cell-based
[23] = Kinetic solubility of the compound in HCl buffer at pH 2.2 measured after 72 hrs by LC-MS analysis; assay type: physicochemical; settings: read-out: Kinetic_solubility
[24] = test system: Tyrosine-protein kinase ABL1 (Homo sapiens), P00519 [Q252H]; assay: Inhibition of human recombinant ABL1 Q252H mutant at 2 uM by KINOMEscan assay
[25] = target: Serine/threonine-protein kinase PLK1 (Homo sapiens) (UniProt P53350); assay: Inhibition of PLK1 (unknown origin) by bio-chip based analysis
[26] = target: Aurora kinase B (Homo sapiens) (UniProt Q96GD4); assay: Disruption of mitotic localization of AURKB in human RPE-MYC H2B-GFP cells assessed as induction of polyploidy by fluorescence high content cell imaging analysis; assay type: cell-based
[27] = Cmax in Wistar rat at 20 mg/kg, po measured for 24 hrs by LC-MS/MS analysis; assay type: ADME, organism-based; parameters: time 24 hrs, dose 20 mg/kg, route po; settings: in vivo

Chain of Aurora kinase B (Homo sapiens) (Q96GD4 whole entry): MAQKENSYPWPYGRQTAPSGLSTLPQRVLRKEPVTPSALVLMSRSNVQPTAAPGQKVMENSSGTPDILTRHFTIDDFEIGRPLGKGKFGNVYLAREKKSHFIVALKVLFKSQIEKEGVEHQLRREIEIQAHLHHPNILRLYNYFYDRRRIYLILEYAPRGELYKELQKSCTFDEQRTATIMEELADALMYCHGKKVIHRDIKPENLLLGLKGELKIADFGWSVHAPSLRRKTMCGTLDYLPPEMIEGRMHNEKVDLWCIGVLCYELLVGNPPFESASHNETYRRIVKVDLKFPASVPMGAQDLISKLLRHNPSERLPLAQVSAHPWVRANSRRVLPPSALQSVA
Chain of Serine/threonine-protein kinase PLK2 (Homo sapiens) (Q9NYY3 whole entry, looked up): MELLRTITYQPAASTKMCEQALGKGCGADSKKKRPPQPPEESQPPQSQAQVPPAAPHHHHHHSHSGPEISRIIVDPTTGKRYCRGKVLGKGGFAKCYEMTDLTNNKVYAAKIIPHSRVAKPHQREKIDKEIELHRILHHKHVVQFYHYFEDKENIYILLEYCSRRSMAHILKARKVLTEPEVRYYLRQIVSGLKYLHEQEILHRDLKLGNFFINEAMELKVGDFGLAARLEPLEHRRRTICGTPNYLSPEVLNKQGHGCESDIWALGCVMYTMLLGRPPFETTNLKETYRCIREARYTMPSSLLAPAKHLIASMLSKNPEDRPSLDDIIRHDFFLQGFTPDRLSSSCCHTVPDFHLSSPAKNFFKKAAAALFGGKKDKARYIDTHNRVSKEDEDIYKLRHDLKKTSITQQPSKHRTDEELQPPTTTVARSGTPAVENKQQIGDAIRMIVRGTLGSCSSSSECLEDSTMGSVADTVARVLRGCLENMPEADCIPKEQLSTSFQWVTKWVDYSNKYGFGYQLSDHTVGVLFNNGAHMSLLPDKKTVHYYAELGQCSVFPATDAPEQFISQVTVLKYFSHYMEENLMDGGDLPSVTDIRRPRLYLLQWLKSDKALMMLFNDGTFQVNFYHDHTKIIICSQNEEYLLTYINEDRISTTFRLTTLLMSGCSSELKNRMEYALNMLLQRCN
Chain of Mitotic checkpoint serine/threonine-protein kinase BUB1 (Homo sapiens) (O43683 whole entry, looked up): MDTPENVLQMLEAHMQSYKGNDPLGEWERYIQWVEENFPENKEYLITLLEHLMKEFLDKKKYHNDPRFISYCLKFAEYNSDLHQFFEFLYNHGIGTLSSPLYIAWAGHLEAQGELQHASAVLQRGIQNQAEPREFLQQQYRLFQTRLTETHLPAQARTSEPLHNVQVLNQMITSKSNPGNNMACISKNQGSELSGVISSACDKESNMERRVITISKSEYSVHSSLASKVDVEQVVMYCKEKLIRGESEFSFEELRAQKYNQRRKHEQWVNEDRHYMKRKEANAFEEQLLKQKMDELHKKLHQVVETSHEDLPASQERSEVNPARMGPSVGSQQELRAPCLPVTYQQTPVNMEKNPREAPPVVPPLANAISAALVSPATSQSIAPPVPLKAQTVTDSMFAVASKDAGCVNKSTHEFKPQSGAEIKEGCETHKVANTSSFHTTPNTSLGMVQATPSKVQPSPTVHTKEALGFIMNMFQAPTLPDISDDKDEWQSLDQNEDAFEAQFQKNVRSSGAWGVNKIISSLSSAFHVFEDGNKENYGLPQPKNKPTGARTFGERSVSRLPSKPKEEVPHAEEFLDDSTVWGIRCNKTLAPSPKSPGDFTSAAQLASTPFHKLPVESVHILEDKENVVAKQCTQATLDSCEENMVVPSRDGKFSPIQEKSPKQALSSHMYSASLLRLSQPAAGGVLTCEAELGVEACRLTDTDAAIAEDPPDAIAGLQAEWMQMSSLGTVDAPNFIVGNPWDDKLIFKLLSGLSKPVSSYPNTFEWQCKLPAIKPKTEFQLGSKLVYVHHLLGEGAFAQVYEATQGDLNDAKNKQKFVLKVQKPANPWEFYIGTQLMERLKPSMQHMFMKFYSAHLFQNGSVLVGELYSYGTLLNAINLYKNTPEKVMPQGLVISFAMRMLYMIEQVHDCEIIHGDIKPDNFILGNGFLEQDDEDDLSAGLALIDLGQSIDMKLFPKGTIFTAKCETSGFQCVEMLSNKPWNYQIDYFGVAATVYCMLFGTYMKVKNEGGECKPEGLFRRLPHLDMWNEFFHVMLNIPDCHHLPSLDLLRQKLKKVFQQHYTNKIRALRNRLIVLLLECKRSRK
Chain of Rho-associated protein kinase 1 (Homo sapiens) (Q13464 2-1354 limits assumed): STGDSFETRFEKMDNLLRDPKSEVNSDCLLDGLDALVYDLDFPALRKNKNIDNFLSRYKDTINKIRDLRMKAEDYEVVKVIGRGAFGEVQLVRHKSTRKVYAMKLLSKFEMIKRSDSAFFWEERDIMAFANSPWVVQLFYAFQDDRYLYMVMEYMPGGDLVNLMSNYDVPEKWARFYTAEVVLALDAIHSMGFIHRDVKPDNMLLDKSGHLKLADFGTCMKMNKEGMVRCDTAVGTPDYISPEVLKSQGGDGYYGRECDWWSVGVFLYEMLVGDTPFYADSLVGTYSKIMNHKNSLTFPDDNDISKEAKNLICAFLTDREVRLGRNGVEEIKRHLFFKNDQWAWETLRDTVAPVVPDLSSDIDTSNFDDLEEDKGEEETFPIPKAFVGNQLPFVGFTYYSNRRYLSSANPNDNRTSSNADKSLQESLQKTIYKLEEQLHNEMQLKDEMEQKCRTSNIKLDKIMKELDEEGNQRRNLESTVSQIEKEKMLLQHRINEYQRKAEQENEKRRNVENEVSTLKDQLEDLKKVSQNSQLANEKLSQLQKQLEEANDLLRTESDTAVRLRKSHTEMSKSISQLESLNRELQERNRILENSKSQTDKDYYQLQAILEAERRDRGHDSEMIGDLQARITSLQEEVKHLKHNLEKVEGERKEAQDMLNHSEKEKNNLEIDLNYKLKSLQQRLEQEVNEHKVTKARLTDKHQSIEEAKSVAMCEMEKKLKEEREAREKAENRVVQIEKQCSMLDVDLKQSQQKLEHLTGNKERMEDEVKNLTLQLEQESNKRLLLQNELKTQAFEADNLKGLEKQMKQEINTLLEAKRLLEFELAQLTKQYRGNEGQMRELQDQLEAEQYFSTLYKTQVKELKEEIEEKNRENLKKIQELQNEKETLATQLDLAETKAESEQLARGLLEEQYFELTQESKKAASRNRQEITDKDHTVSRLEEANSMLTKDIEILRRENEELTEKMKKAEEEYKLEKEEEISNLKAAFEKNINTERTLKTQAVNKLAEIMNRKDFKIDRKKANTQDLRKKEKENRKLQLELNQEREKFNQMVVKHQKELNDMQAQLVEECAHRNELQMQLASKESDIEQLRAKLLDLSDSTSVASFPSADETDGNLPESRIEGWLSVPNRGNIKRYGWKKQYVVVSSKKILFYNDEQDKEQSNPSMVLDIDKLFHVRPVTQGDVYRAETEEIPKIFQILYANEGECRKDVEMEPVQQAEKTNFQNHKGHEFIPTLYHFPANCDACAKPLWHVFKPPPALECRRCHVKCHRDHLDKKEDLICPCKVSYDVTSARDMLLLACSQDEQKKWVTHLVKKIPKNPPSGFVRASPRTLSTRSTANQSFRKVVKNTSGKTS
Chain of Serine/threonine-protein kinase PLK1 (Homo sapiens) (P53350 whole entry): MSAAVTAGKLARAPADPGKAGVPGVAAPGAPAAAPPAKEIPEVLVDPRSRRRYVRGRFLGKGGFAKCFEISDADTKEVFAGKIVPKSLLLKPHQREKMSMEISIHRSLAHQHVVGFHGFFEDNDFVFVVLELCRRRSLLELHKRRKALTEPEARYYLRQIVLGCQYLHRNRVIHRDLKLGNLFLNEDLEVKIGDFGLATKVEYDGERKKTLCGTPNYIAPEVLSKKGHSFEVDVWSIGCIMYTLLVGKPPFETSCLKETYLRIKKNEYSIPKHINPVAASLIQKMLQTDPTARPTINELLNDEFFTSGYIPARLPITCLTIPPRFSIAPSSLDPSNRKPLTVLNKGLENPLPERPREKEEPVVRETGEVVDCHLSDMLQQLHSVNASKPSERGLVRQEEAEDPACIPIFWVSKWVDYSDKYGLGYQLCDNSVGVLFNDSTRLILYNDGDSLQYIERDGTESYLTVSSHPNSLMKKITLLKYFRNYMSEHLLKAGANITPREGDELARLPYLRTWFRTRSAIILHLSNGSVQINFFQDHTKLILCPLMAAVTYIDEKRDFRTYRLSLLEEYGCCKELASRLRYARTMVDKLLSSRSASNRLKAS
Chain of Receptor-type tyrosine-protein kinase FLT3 (P36888 whole entry): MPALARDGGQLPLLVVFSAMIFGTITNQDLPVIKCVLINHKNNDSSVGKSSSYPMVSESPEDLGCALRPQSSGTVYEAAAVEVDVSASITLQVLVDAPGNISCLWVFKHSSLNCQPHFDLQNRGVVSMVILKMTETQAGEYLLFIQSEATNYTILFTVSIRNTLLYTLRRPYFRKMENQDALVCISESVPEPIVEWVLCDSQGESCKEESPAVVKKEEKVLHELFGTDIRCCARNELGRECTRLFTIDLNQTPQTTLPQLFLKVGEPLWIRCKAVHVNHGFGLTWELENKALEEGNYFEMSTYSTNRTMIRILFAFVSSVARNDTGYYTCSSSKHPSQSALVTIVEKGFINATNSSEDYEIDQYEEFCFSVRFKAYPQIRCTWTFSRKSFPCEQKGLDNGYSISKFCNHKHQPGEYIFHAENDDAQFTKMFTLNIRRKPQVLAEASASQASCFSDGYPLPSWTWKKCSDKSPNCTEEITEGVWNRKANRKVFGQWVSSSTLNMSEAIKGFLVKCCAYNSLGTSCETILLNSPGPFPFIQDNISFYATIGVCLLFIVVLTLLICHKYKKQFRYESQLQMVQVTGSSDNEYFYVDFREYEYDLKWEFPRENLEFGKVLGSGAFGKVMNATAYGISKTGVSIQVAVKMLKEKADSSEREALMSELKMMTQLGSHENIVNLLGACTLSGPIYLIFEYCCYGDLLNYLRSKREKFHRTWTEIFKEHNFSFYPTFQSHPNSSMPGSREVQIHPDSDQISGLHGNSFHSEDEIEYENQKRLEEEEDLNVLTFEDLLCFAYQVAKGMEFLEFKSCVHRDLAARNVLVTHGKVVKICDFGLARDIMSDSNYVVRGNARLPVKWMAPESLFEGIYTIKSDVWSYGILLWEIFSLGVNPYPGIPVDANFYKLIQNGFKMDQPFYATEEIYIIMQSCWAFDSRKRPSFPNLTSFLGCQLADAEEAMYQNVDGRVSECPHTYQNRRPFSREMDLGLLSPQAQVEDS

**Q.** With `COc1cc(NC(C)=O)cc(Oc2ccnc3ccc(OC)cc23)c1` as the compound, how does the “inhibition (INH)” value [1] read?
**A.** Not Active

**Q.** And the inhibition [2]?
**A.** < 40%

**Q.** What about the half-life [3] of the same compound?
**A.** 1.09 h

**Q.** What about the Activity (SW480) of the same compound?
**A.** Active

**Q.** And the Ratio [4]?
**A.** 70

**Q.** What about the Activity [5] of the same compound?
**A.** Active

**Q.** What about the inhibition [6] of the same compound?
**A.** inactive

**Q.** What about the Vd [7] of the same compound?
**A.** 3.7 L/kg

**Q.** And the bioavailability [8]?
**A.** 27.6%

**Q.** What about the Activity [9] of the same compound?
**A.** 100%

**Q.** What about the “fold change (FC)” value (Mus musculus) of the same compound?
**A.** 1.7

**Q.** What about the Activity (HCT-116) of the same compound?
**A.** Active

**Q.** And the inhibition [10]?
**A.** < 40%

**Q.** What about the inhibition [11] of the same compound?
**A.** inactive

**Q.** And the Activity (HeLa)?
**A.** Active

**Q.** And the inhibition [12]?
**A.** inactive

**Q.** And the Ratio [13]?
**A.** 70

**Q.** And the clearance [14]?
**A.** 29.3 mL/min/kg

**Q.** What about the concentration at 6 h [15] of the same compound?
**A.** 213 ng/mL

**Q.** And the inhibition [16]?
**A.** inactive

**Q.** And the Activity (NCI-N87)?
**A.** Active

**Q.** And the inhibition [17]?
**A.** Active

**Q.** And the half-life [18]?
**A.** 3.26 h

**Q.** What about the MRT inf [19] of the same compound?
**A.** 2.83 h

**Q.** What about the degraded at 72 h [20] of the same compound?
**A.** 0%

**Q.** And the inhibition [21]?
**A.** inactive

**Q.** What about the Activity [22] of the same compound?
**A.** 15.3%

**Q.** And the solubility kinetic at 72 h [23]?
**A.** > 190 µM

**Q.** What about the inhibition [24] of the same compound?
**A.** Active

**Q.** And the inhibition [25]?
**A.** inactive

**Q.** What about the MEC [26] of the same compound?
**A.** 0.01 µM

**Q.** And the Cmax [27]?
**A.** 3140 ng/mL
